Literature values in paper PMC2110886 (PLoS ONE, 2007).

System: Seasonal influenza strains
Design: method as in PMID 15709056
Settings: in children; cited from earlier work

CCOC(=O)C1=C[C@@H](OC(CC)CC)[C@H](NC(C)=O)[C@@H](N)C1 [Oseltamivir, oseltamivir, reference compound]
rate of resistance to oseltamivir: 4%
